Test [1] deals with T1, PIP4K2A (full length protein, SignalChem) (Homo sapiens, UniProt P48426).
T1 construct: 4 nM PIP4K2A (full length protein, SignalChem); purchased SignalChem
T1 sequence (P48426 1-406): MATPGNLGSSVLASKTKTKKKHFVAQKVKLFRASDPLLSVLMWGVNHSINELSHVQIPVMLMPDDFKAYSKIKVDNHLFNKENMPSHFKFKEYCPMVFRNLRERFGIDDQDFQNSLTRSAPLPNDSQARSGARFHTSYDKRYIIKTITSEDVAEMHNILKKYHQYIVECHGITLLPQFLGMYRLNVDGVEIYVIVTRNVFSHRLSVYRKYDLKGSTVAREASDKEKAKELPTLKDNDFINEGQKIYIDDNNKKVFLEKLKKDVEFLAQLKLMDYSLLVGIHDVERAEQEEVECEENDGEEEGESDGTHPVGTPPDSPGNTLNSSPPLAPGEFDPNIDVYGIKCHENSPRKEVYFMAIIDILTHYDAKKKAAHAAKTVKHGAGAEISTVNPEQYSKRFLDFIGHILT
The test is described as follows: Kinase Assay PIP4K2 A (Sprint); ADP-Glo biochemical assay. The conditions noted are these: Table 2; compounds listed under IC50 range headings. The procedure, abridged: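 ADP-Glo luminescence detected ADP after a 1 h RT reaction started with 60 μM ATP solution. Before that, full-length PIP4K2A (4 nM in mix) with 100 μM PI(5)P diC8 was pre-incubated 15 min with compounds in MOPS buffer pH 7.2, 25 mM MgCl2, 0.005% Tween 20. IC50 derived from % inhibition relative to DMSO over 10 three-fold concentrations.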

In a further test the target is T2, GST tagged PIP4KtypeIIA (Homo sapiens, UniProt P48426).
T2 construct: made in house; host or cells: E. coli
T2 sequence (P48426 1-406): T1 sequence (P48426 1-406)
The test is described as follows: ADP-glo kinase assay PIP4K 2A (PIP4KtypeIIA inhibition assay). The test is classed as biochemical. The conditions noted are these: Table 3; compounds listed under IC50 range headings; 10 uM ATP, 0.5 nM PIP4KIIA. In outline: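 Read-out was ADP-Glo luminescence converted to μM ADP, with IC50 plotted as % of no-inhibitor activity against log concentration. Reactions contained 10 μM ATP, 80 μM PI5P with DOPE carrier, and 0.5 nM GST-tagged PIP4KIIA (E. coli-expressed) in pH 7.3 HEPES/MgCl2 buffer with 5% DMSO. Enzyme and compound (≤4.8 μM) were preincubated 1 h at 27 °C before the 1 h reaction.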

The target in a further test is T3, GST tagged PIP4KtypeIIB (Homo sapiens, UniProt P78356).
T3 construct: made in house; host or cells: E. coli
T3 sequence (P78356 1-416): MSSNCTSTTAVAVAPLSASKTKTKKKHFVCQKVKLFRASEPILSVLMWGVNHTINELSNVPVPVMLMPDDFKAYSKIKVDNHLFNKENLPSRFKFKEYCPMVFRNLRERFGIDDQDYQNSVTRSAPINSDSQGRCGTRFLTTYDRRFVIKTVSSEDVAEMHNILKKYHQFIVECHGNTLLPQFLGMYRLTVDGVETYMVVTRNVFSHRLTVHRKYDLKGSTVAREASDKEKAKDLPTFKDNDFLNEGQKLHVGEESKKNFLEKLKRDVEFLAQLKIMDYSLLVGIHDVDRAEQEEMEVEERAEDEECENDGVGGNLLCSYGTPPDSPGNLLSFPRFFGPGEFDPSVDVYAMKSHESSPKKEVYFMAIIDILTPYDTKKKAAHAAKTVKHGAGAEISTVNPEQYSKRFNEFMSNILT
The experiment in a line: Trans-FI P kinase assay PIP4K2B (PIP4KtypeIIB inhibition assay). The test is classed as biochemical. The conditions noted are these: Table 4; compounds listed under IC50 range headings; 100 uM GTP, 5 nM PIP4KIIB; read-out: Trans-FI P kinase assays: PIP4K2B IC50. In outline:
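Transcreener FI fluorescence, converted to GDP by calibration, tracked product from 5 nM E. coli-expressed GST-PIP4KIIB acting on 80 uM PI5P (DOPE carrier) with 100 uM GTP. Compound (top 4.8 uM final, 5% DMSO) was preincubated 1 h at 27 C before the 2 h reaction; IC50 fitted from residual activity.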

As to `CN(C)C(=O)c1ccc(-c2cncc(-c3ccncc3)c2)cc1` [Example 1, 4-([3,4′-bipyridin]-5-yl)-N,N-dimethylbenzamide], the values for the IC50 (in test [1]; against GST tagged PIP4KtypeIIA; at GST tagged PIP4KtypeIIB) were less than 5000 nM, more than 5000 nM and more than 5000 nM, respectively.
`CN(C)C(=O)c1ccc(-c2cncc(-c3ccnc4[nH]ccc34)c2)cc1` [Example 2, 4-(5-(1H-pyrrolo[2,3-b]pyridin-4-yl)pyridin-3-yl)-N,N-dimethylbenzamide]: the IC50 (in test [1]; on GST tagged PIP4KtypeIIA; at GST tagged PIP4KtypeIIB) was 100 to 1000 nM throughout.
In the case of `CN(C)C(=O)c1ccc(-c2cncc(-c3cnc4[nH]ccc4c3)c2)cc1` [Example 4, 4-(5-(1H-pyrrolo[2,3-b]pyridin-5-yl)pyridin-3-yl)-N,N-dimethylbenzamide], the 50% inhibitory concentration (IC50) in test [1] lay in the range of 100 to 1000 nM; at GST tagged PIP4KtypeIIA, 2500 to 5000 nM; at GST tagged PIP4KtypeIIB, 2500 to 5000 nM.
Take `CN(C)C(=O)c1ccc(-c2cncc(-c3ccnc4c3ccn4C)c2)cc1` [Example 5, N,N-dimethyl-4-(5-(1-methyl-1H-pyrrolo[2,3-b]pyridin-4-yl)pyridin-3-yl)benzamide]: the IC50 in test [1] lay in the range of 100 to 1000 nM; on GST tagged PIP4KtypeIIA it was 2500 to 5000 nM; on GST tagged PIP4KtypeIIB, 1000 to 2500 nM.
Regarding `CN(C)C(=O)c1ccc(-c2cncc(-c3cnc4c(ccn4C)c3)c2)cc1` [Example 6, N,N-dimethyl-4-(5-(1-methyl-1H-pyrrolo[2,3-b]pyridin-5-yl)pyridin-3-yl)benzamide], the figures for the IC50 (in test [1]; against GST tagged PIP4KtypeIIA; on GST tagged PIP4KtypeIIB) were 1000 to 2500 nM, more than 5000 nM and more than 5000 nM, respectively.
On to `CN(C)C(=O)c1ccc(-c2cncc(-c3ccnc4ccncc34)c2)cc1` [Example 7, 4-(5-(1,6-naphthyridin-4-yl)pyridin-3-yl)-N,N-dimethylbenzamide], for which the figures for the IC50 (in test [1]; at GST tagged PIP4KtypeIIA; at GST tagged PIP4KtypeIIB) were 2500 to 5000 nM, more than 5000 nM and more than 5000 nM, respectively.
For `CN(C)C(=O)c1ccc(-c2cncc(-c3ccnc(C(=O)N(C)C)c3)c2)cc1` [Example 9, 5-(4-(dimethylcarbamoyl)phenyl)-N,N-dimethyl-[3,4′-bipyridine]-2′-carboxamide], the results for the IC50 (in test [1]; at GST tagged PIP4KtypeIIA; at GST tagged PIP4KtypeIIB) were less than 5000 nM, more than 5000 nM and more than 5000 nM, respectively.
On to `CN(C)C(=O)c1ccc(-c2cncc(-c3c[nH]c4ncccc34)c2)cc1` [Example 10, 4-(5-(1H-pyrrolo[2,3-b]pyridin-3-yl)pyridin-3-yl)-N,N-dimethylbenzamide], for which the IC50 (in test [1]; on GST tagged PIP4KtypeIIA; on GST tagged PIP4KtypeIIB) was 100 to 1000 nM in each case.
In the case of `Cc1[nH]c2ncccc2c1-c1cncc(-c2ccc(C(=O)N(C)C)cc2)c1` [Example 11, N,N-dimethyl-4-(5-(2-methyl-1H-pyrrolo[2,3-b]pyridin-3-yl)pyridin-3-yl)benzamide], the IC50 (in test [1]; on GST tagged PIP4KtypeIIA; at GST tagged PIP4KtypeIIB) was 100 to 1000 nM throughout.
Take `CN(C)C(=O)c1ccc(-c2cncc(-c3c[nH]c4ncc(Cl)cc34)c2)cc1` [Example 12, 4-(5-(5-chloro-1H-pyrrolo[2,3-b]pyridin-3-yl)pyridin-3-yl)-N,N-dimethylbenzamide]: the IC50 in test [1] was 5 to 100 nM; against GST tagged PIP4KtypeIIA, 100 to 1000 nM; at GST tagged PIP4KtypeIIB, 100 to 1000 nM.
As to `CNC(=O)c1cc2c(-c3cncc(-c4ccc(C(=O)N(C)C)cc4)c3)ccnc2n1C` [Example 13, 4-(5-(4-(dimethylcarbamoyl)phenyl)pyridin-3-yl)-N,1-dimethyl-1H-pyrrolo[2,3-b]pyridine-2-carboxamide], the figures for the IC50 (in test [1]; on GST tagged PIP4KtypeIIA; at GST tagged PIP4KtypeIIB) were 1000 to 2500 nM, 2500 to 5000 nM and 1000 to 2500 nM, respectively.
Consider `CNC(=O)c1cc2c(-c3cncc(-c4ccc(C(=O)N(C)C)cc4)c3)ccnc2o1` [Example 14, 4-(5-(4-(dimethylcarbamoyl)phenyl)pyridin-3-yl)-N-methylfuro[2,3-b]pyridine-2-carboxamide], for which the IC50 (in test [1]; at GST tagged PIP4KtypeIIA; at GST tagged PIP4KtypeIIB) was 100 to 1000 nM in each case.
For the compound `CC(O)c1cnc2[nH]cc(-c3cncc(-c4ccc(C(=O)N(C)C)cc4)c3)c2c1` (stereo not shown) [Example 15, 4-(5-(5-(1-hydroxyethyl)-1H-pyrrolo[2,3-b]pyridin-3-yl)pyridin-3-yl)-N,N-dimethylbenzamide], the IC50 in test [1] fell in the range of 5 to 100 nM; against GST tagged PIP4KtypeIIA it was 100 to 1000 nM; on GST tagged PIP4KtypeIIB it was 100 to 1000 nM.
As to `CN(C)C(=O)c1ccc(-c2cc(-c3ccnc4ccccc34)cnc2N)nc1` [Example 20, 2′-amino-N,N-dimethyl-5′-(quinolin-4-yl)-[2,3′-bipyridine]-5-carboxamide], the figures for the IC50 (in test [1]; on GST tagged PIP4KtypeIIA; on GST tagged PIP4KtypeIIB) were 100 to 1000 nM, 1000 to 2500 nM and 100 to 1000 nM, respectively.
Turning to `CN(C)C(=O)c1ccc(-c2cc(-c3ccnc4[nH]ccc34)cnc2N)nc1` [Example 21, 2′-amino-N,N-dimethyl-5′-(1H-pyrrolo[2,3-b]pyridin-4-yl)-[2,3′-bipyridine]-5-carboxamide], the IC50 (in test [1]; against GST tagged PIP4KtypeIIA; at GST tagged PIP4KtypeIIB) was 100 to 1000 nM each time.
As to `Nc1ncc(Br)cc1-c1ccc(N2CCCC2=O)cn1` [Example 22, 1-(2′-amino-5′-bromo-[2,3′-bipyridin]-5-yl)pyrrolidin-2-one], the half-inhibitory concentration (IC50) in test [1] is less than 5000 nM; against GST tagged PIP4KtypeIIA it was more than 5000 nM; on GST tagged PIP4KtypeIIB it was more than 5000 nM.
For `Cc1cc(N2CCCC2=O)ccc1-c1cncc(-c2ccncc2)c1` [Example 81, 1-(4-([3,4′-bipyridin]-5-yl)-3-methylphenyl)pyrrolidin-2-one], the IC50 was less than 5000 nM in test [1] and 1000 to 2500 nM against GST tagged PIP4KtypeIIA.
With `COCc1c(-c2ccncc2)cncc1-c1ccc(N2CCCC2=O)cc1` [Example 83, 1-(4-(4-(methoxymethyl)-[3,4′-bipyridin]-5-yl)phenyl)pyrrolidin-2-one], the IC50 in test [1] is 1000 to 2500 nM; against GST tagged PIP4KtypeIIA, more than 5000 nM.
On the same counts, the results for `COC(=O)c1c[nH]c2nccc(-c3cnc(N)c(-c4ccc(C(=O)N(C)C)cn4)c3)c12` [Example 114, methyl 4-(2′-amino-5-(dimethylcarbamoyl)-[2,3′-bipyridin]-5′-yl)-1H-pyrrolo[2,3-b]pyridine-3-carboxylate] are less than 5000 nM and more than 5000 nM.
On to `Cn1cc(-c2cncc(-c3ccc(N4CCCC4=O)cc3)c2)c2cncnc21` [Example 153, 1-(4-(5-(7-methyl-7H-pyrrolo[2,3-d]pyrimidin-5-yl)pyridin-3-yl)phenyl)pyrrolidin-2-one], for which the figures for the IC50 (in test [1]; against GST tagged PIP4KtypeIIA) were less than 5000 nM and 10 to 100 nM, respectively.
Take `O=C(NCCc1cncs1)c1cc2c(-c3cncc(-c4ccc(N5CCCC5=O)cc4)c3)ccnc2[nH]1` [Example 298, 4-(5-(4-(2-oxopyrrolidin-1-yl)phenyl)pyridin-3-yl)-N-(2-(thiazol-5-yl)ethyl)-1H-pyrrolo[2,3-b]pyridine-2-carboxamide]: the IC50 lay within 100 to 1000 nM on GST tagged PIP4KtypeIIA and 10 to 100 nM on GST tagged PIP4KtypeIIB.
The like results for `CC(O)c1cnc2c(c1)c(-c1cncc(-c3ccc(N4CCCC4=O)cc3)c1)c1n2CCC1` (stereo not shown) [Example 351, 1-(4-(5-(3-(1-hydroxyethyl)-7,8-dihydro-6H-pyrido[3,2-b]pyrrolizin-5-yl)pyridin-3-yl)phenyl)pyrrolidin-2-one] were, in that order, 10 to 100 nM and 10 to 100 nM.
The like results for `O=C1CCCN1c1ccc(-c2cncc(-c3c4n(c5ncncc35)CCC4)c2)cc1` [Example 352, 1-(4-(5-(7,8-dihydro-6H-pyrimido[5,4-b]pyrrolizin-5-yl)pyridin-3-yl)phenyl)pyrrolidin-2-one] were, in that order, 10 to 100 nM and 10 to 100 nM.
On the same counts, the results for `O=C1CCCN1c1ccc(-c2cncc(-c3c4n(c5ncc(Br)cc35)CCC4)c2)cc1` [Example 353, 1-(4-(5-(3-bromo-7,8-dihydro-6H-pyrido[3,2-b]pyrrolizin-5-yl)pyridin-3-yl)phenyl)pyrrolidin-2-one] are 10 to 100 nM and 10 to 100 nM.
